Tests used:
HCT116 cells = test: Total (nucleolar) RNA synthesis (3H-uridine incorporation); format: cell-based; parameters: 3H-uridine incorporation, time course: unit of the concentration uncertain
Method: Effects of compound A-1 and compound B-1 on DNA synthesis, RNA synthesis and protein synthesis were determined in HCT116 cells. HCT116 cells were plated overnight at 100,000 cells per mL. Next day cells were treated with increasing amounts of either compound A-1 or compound B-1 followed by one hour incubation with BrdU label (from a BrdU Cell proliferation Assay Kit, Calbiochem) to monitor DNA synthesis; […] of ^3H-uridine to monitor total RNA synthesis; […] of ^3H-methionine to monitor protein synthesis or plain media to monitor RNA Polymerase II-dependent RNA synthesis. DNA synthesis was assessed using a BrdU-ELISA (BrdU Cell proliferation Assay Kit, Calbiochem). To measure total RNA synthesis, total RNA from treated cells was isolated with a RNease kit (QIAGEN), levels of total RNA were assessed with Ribogreen reagent (Invitrogen) and the newly synthesized tritiated RNA was measured in a scintillation Counter (Perkin Elmer). To measure effects on protein synthesis, cells were lysed in a RIPA buffer, and total protein was precipitated with 10% TCA on a glass-filters. Newly synthesized tritiated protein was measured in a scintillation Counter (Perkin Elmer). Effects of drugs on […] RNA synthesis were assessed by monitoring levels of a c-myc mRNA, which has a relatively short half-life of approximately 30 minutes, by Taqman qRT-PCR (ABI).

MKK7β(h) = molecular target: T1, MKK7β(h) (Homo sapiens, UniProt O14733); test: Protein kinase inhibition assay; format: biochemical; details: for remaining activity at 2.5 µM: read-out: percent residual activity of MKK7β(h)
T1 sequence (O14733 1-419): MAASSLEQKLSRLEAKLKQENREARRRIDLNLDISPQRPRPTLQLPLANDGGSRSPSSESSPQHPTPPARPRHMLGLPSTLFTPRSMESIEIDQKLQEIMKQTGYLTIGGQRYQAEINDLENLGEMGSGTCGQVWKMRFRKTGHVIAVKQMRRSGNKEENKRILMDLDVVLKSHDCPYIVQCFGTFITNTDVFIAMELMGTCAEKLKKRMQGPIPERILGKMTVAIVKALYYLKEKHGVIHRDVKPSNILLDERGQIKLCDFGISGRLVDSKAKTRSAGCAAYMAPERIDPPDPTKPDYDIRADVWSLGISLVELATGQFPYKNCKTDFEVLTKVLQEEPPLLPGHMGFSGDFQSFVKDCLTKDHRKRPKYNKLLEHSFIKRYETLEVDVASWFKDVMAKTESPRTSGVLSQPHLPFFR
Method: (§1) Certain compounds were tested for activity in protein kinase inhibition assays. All substrates were dissolved and diluted to working stocks in de-ionized water, apart from histone H1 (10× working stock in 20 mM MOPS pH 7.0), PDKtide (10× working stock in 50 mM Tris pH 7.0) ATF2 (which is typically stored at a 20× working stock in 50 mM Tris pH 7.5, 150 mM NaCl, 0.1 mM EGTA, 0.03% Brij-35, 50% glycerol, 1 mM benzamidine, 0.2 mM PMSF and 0.1% R-mercaptoethanol), KKLNRTLSFAEPG (SEQ ID NO:203) and RRRLSFAEPG (SEQ ID NO:204) (50 mM HEPES pH 7.4) and GGEEEEYFELVKKKK (SEQ ID NO:205) (20 mM MOPS pH 7.0). All kinases were pre-diluted to a 10× working concentration prior to addition into the assay. The composition of the dilution buffer for each kinase is detailed below.
The reaction is initiated by the addition of the MgATP. After incubation for 40 minutes at room temperature, 5 μl of this incubation mix is used to initiate a JNK1α1 (h) assay, which is exactly as described on page 11 of this book except that ATF2 is replaced with 250 μM peptide.

MAPK2(h) = MAPK2(h) (Homo sapiens, UniProt P28482); test: Protein kinase inhibition assay; format: biochemical; details: read-out: percent residual activity of MAPK2(h)
Chain of MAPK2(h) (P28482 whole entry): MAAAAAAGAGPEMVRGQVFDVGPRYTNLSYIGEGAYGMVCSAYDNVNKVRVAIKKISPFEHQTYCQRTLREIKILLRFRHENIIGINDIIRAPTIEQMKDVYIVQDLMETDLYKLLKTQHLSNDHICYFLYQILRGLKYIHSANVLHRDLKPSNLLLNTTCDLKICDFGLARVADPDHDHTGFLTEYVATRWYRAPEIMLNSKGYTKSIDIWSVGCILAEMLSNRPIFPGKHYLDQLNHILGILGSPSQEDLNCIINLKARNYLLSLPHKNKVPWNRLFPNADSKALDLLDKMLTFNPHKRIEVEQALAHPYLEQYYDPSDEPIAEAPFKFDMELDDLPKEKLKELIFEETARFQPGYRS
Method: as §1
(§2) In a final reaction volume of 25 μl, MAPK2 (h) (5-10 mU) is incubated with 25 mM Tris pH 7.5, 0.02 mM EGTA, 0.33 mg/ml myelin basic protein, 10 mM MgAcetate and [gamma-33P-ATP] (specific activity approx. 500 cpm/pmol, concentration as required). The reaction is initiated by the addition of the MgATP mix. After incubation for 40 minutes at room temperature, the reaction is stopped by the addition of Stl of a 3% phosphoric acid solution. 10 μl of the reaction is then spotted onto a P30 filtermat and washed three times for 5 minutes in 75 mM phosphoric acid and once in methanol prior to drying and scintillation counting.

Flt1(h) = Flt1(h) (Homo sapiens, UniProt P17948); test: Protein kinase inhibition assay; format: biochemical; details: read-out: percent residual activity of Flt1(h)
Chain of Flt1(h) (P17948 27-1338): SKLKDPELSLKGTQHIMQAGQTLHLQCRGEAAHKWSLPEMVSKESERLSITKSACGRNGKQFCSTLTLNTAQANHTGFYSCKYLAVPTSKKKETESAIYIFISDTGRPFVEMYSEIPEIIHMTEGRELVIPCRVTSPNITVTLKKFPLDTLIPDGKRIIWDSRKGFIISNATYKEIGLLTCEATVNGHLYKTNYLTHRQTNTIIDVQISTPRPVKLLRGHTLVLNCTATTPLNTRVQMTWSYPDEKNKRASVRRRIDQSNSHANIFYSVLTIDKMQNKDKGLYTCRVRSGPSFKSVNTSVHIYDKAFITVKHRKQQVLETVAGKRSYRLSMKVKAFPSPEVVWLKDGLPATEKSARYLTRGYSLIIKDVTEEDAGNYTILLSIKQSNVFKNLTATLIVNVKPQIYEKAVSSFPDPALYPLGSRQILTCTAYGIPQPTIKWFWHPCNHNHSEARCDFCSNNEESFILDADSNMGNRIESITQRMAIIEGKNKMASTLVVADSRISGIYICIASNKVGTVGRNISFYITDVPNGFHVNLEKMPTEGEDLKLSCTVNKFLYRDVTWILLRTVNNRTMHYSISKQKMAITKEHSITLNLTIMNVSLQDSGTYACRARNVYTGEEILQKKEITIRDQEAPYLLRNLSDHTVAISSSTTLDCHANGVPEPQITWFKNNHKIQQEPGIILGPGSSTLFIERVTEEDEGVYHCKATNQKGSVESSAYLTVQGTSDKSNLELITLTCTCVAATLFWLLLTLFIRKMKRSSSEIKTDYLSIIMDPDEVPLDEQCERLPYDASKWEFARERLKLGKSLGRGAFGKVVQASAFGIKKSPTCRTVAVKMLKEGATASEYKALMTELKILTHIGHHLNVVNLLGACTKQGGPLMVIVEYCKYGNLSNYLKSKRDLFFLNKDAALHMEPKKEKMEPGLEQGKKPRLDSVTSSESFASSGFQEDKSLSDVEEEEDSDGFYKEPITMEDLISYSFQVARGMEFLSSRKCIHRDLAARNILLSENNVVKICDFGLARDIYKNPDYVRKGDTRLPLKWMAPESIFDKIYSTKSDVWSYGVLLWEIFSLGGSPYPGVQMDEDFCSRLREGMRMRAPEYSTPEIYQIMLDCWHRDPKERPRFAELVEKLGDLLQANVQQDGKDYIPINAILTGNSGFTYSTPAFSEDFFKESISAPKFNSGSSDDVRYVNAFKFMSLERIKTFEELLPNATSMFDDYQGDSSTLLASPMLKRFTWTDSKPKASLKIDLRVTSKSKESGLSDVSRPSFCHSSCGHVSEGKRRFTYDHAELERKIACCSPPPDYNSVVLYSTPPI
Method: as §1
as §2, with “μl, Flt1” for “μl, MAPK2”, “with 8” for “with 25”, “mM MOPS” for “mM Tris”, “pH 7.0, 0.2” for “pH 7.5, 0.02”, “mM EDTA, 250 μM KKKSPGEYVNIEFG (SEQ ID NO:207),” for “mM EGTA, 0.33 mg/ml myelin basic protein,”, “of 5 μl” for “of Stl”

| SMILES | concentration that significantly reduced nucleolar RNA synthesis (HCT116 cells) [µM] | 3H-uridine incorporation, time course (HCT116 cells; 3 (unit uncertain) for 15 min) | remaining activity at 2.5 µM (MKK7β(h)) [%] | remaining activity at 2.5 µM (MAPK2(h)) [%] | remaining activity at 2.5 µM (Flt1(h)) [%] | 3H-uridine incorporation, time course (HCT116 cells; 10 (unit uncertain) for 30 min) | inhibition of MKK7B (MKK7β(h); 2.5 μM) |
| --- | --- | --- | --- | --- | --- | --- | --- |
| CN1CCCC1CCNC(=O)c1cn2c3c(c(N4CCC(c5cnccn5)C4)c(F)cc3c1=O)Oc1cc3ccccc3cc1-2 (centres unmarked) [Compound A-1] | 1 | substantially inhibited | 111 | 101 | 78 |  |  |
| CC(=O)N1CCN(c2ccc3c(=O)c(C(=O)NCCN4CCCC4)c4n(C)c5ccccc5n4c3n2)CC1 [Compound B-1] | 10 |  | 1 | 108 | 106 | substantially inhibited | inhibits MKK7B |

Source: patent US20070117770A1, “Human ribosomal DNA (rDNA) and ribosomal RNA (rRNA) nucleic acids and uses thereof” (Cylene Pharmaceuticals, Inc., priority 2005, published 2007)
